Values of other authors in paper PMC10090446, “Population pharmacokinetic analysis and dosing optimization of polymyxin B in critically ill patients” (Frontiers in Pharmacology, 2023).
Read-outs that look alike come from different tables or passages of the source. Positions of bridges follow the written chain, without caps; N, C: chain ends. Non-standard residues stand in square brackets, D forms with d. Residues, ends and D or L forms follow the SMILES beside them. *: point of attachment. X1 = CC[C@H](C)CCCCC(=O)*; Dab = NCC[C@H](N)C(=O)O

What was measured:
[1] = used to convert fAUC/MIC target; ref Sandri et al., 2013; cited from earlier work
Experimental: Combined with population PK/PD feature parameters of antibiotics medicines, the PTA of PK/PD target for a dosing regimen at a predetermined minimum inhibitory concentration (MIC) was performed by Monte Carlo simulation. According to the 2019 International Consensus Guidelines ([Tsuji et al., 2019]), the target of fAUC/MIC for polymyxins was around 20, and the unbound fraction was determined to be 0.42 ([Sandri et al., 2013]). Thus AUC/MIC ≥ 50 was set as the efficacy target, as well as the MIC range was set at 0.25–4 mg L^-1 ([Satlin et al., 2020]). Additionally, considering the nephrotoxicity ...

[2] = cited from earlier work
From the text: TABLE 5 PPK studies of polymyxin B. | column: Estimation of population parameters || Since small samples were employed in this experiment, the non-parametric population modeling algorithm has theoretical advantages over parametric methods in detecting population PK/PD subgroups and outliers ([Goutelle et al., 2022]), so the non-parametric population modeling approach was chosen for modeling in this study. The values of CL (1.24 L h^-1) and V (16.64 L) (Table 3) in this study were in line with the ranges from previous reports, including the CL range (1.2–4.2 L h^-1) ([Sandri et al., 2013]) (Table 3) and the V range (5.63–34.4 L) (Table 5). However, the CL value was lower than t ...

[3] = Acutely ill patients, n = 52, two-compartment model, ref Miglis et al. (2018)
[4] = Critically ill patients with CVVH, n = 53, two-compartment model, ref Wang et al. (2022)
[5] = Critically ill patients with/without CRRT, n = 53, two-compartment model, ref Luo et al. (2022)
[6] = Critically ill patients, n = 24, two-compartment model, ref Sandri et al. (2013)
[7] = Health Volunteers, n = 20, three-compartment model, ref Liu et al. (2021)
[8] = Patients with MDR-GNB infections, n = 46, two-compartment model, ref Wang et al. (2020)
[9] = Patients with/without ECMO, n = 13, non-compartment model, ref Surovoy et al. (2022)

SMILES: CC[C@H](C)CCCCC(=O)N[C@@H](CCN)C(=O)N[C@H](C(=O)N[C@@H](CCN)C(=O)N[C@H]1CCNC(=O)[C@H]([C@@H](C)O)NC(=O)[C@H](CCN)NC(=O)[C@H](CCN)NC(=O)[C@H](CC(C)C)NC(=O)[C@@H](Cc2ccccc2)NC(=O)[C@H](CCN)NC1=O)[C@@H](C)O [polymyxin B] (X1-[Dab]T[Dab][Dab][Dab][dF]L[Dab][Dab]T; lactam 4-C)
- unbound fraction [1]: 0.42
- CL ([2]; Acutely ill patients, n = 52, 156 samples, two-compartment model, ref Miglis et al. (2018)): 2.63 L/h
- Q [2, 3]: 2.32 L/h
- V1 [2, 3]: 33.8 L
- V2 [2, 3]: 78.2 L
- CL ([2]; Clinical Samples, n = 43, 134 samples, one-compartment model, ref Kubin et al. (2018)): 2.37 L/h
- V ([2]; Clinical Samples, n = 43, one-compartment model, ref Kubin et al. (2018)): 34.4 L
- CLCRRT ([2]; Critically ill patients undergoing CRRT, n = 53 with/without CRRT, two-compartment model, ref Luo et al. (2022)): 1.95 L/h
- CL ([2]; Critically ill patients with CVVH, n = 53, 275 samples, two-compartment model, ref Wang et al. (2022)): 1.95 L/h
- CLCVVH [2, 4]: 4.52 L/h
- Q [2, 4]: 2.28 L/h
- V [2, 4]: 15.0 L
- V2 [2, 4]: 6.54 L
- CLwithoutCRRT ([2]; Critically ill patients with/without CRRT, n = 53, 189 samples, two-compartment model, ref Luo et al. (2022)): 1.5 L/h
- Q [2, 5]: 1.34 L/h
- V [2, 5]: 11.7 L
- V2 [2, 5]: 17.9 L
- CL ([2]; Critically ill patients, n = 24, 100 samples, two-compartment model, ref Sandri et al. (2013)): 1.66 L/h
- Q [2, 6]: 8.76 L/h
- V1 [2, 6]: 5.63 L
- V2 [2, 6]: 19.8 L
- CL [2, 7]: 1.62 L/h
- Q2 [2, 7]: 8.4 L/h
- Q3 [2, 7]: 0.384 L/h
- V [2, 7]: 4.26 L
- V2 [2, 7]: 3.66 L
- V3 [2, 7]: 2.7 L
- CL ([2]; Individuals with severe infections, n = 35, 139 samples, one-compartment model, ref Manchandani et al. (2018)): 2.5 L/h
- V ([2]; Individuals with severe infections, n = 35, one-compartment model, ref Manchandani et al. (2018)): 34.3 L
- CL ([2]; Patients with MDR-GNB infections, n = 46, 331 samples, two-compartment model, ref Wang et al. (2020)): 1.786 L/h
- Q [2, 8]: 13.518 L/h
- V1 [2, 8]: 6.218 L
- V2 [2, 8]: 11.922 L
- CL ([2]; Patients with TDM, n = 32, 112 samples, one-compartment model, ref Yu et al. (2021)): 1.59 L/h
- V ([2]; Patients with TDM, n = 32, one-compartment model, ref Yu et al. (2021)): 20.5 L
- CL [2, 9]: 1.16 L/h
- V [2, 9]: 19.73 L
- CL ([2]; Renal transplant patients, n = 50, 151 samples, one-compartment model, ref Li et al. (2021)): 1.18 L/h
- V ([2]; Renal transplant patients, n = 50, one-compartment model, ref Li et al. (2021)): 12.09 L
